Laboratory results taken from PMC4975872 (Journal of biomolecular screening, 2014).
Read-outs that look alike come from different tables or passages of the source.

Legend:
[1] = test system: ERK/β-arrestin interaction; assay type: cell-based, human; conditions: antagonist 15 min, then 1 μM adrenaline for 90 min
[2] = test system: ERK/β-arrestin interaction; assay type: cell-based, human; conditions: inhibitor 15 min in serum-free DMEM, then 5% FBS for 90 min
[3] = molecular target: S1P (endogenous GPCR); assay type: cell-based, U2OS; conditions: read-out: EC50 values; n = 3
[4] = test system: ERK/β-arrestin interaction; conditions: 10 μM agonist, Fig. S5
[5] = test system: ERK/β-arrestin interaction; experiment: ERK/β-arrestin interaction LinkLight assay, RTK ligand responses; assay type: cell-based, human; conditions: endogenous RTKs in U2OS cells, serum-free DMEM, 90 min, 37°C
[6] = test system: ERK/β-arrestin interaction; experiment: ERK/β-arrestin interaction LinkLight assay, cytokine receptor response; assay type: cell-based, human; conditions: for S/B ratio: 0.1 μg/ml cytokine, Fig. S5; for EC50, stimulation of ERK/β-arrestin interaction signals by cytokines: endogenous cytokine receptors in U2OS cells, serum-free DMEM, 90 min, 37°C

CN(C)CCN(C)CCc1ccc(Cl)c(Cl)c1 [BD-1047]
inhibition of GPCR agonist-induced ERK/β-arrestin interaction signals [1]: inhibit

O=C(NOCC1CC1)c1ccc(F)c(F)c1Nc1ccc(I)cc1Cl [CI-1040]
inhibition of FBS-induced ERK/β-arrestin interaction signals [2]: did not block

O=C1Nc2ccc(I)cc2/C1=C/c1cc(Br)c(O)c(Br)c1 [GW5074]
inhibition of FBS-induced ERK/β-arrestin interaction signals [2]: did not block

CCCCCCCCCCCCC/C=C/[C@@H](O)[C@@H](N)COP(=O)(O)O [S1P, sphingosine 1-phosphate]
EC50 [3]: 337 nM

CNC[C@H](O)c1ccc(O)c(O)c1 [adrenaline]
S/B ratio [4]: 3.78 fold

Cc1nc(Nc2ncc(C(=O)Nc3c(C)cccc3Cl)s2)cc(N2CCN(CCO)CC2)n1 [dasatinib]
inhibition of FBS-induced ERK/β-arrestin interaction signals [2]: blocked

NCCc1ccc(O)c(O)c1 [dopamine]
S/B ratio [4]: 3.66 fold

EGF: epidermal growth factor, RTK ligand
EC50, stimulation of luciferase signals by RTK ligands [5]: 3.75 ng/mL

FGF-b: growth factor FGF-basic, RTK ligand
EC50, stimulation of luciferase signals by RTK ligands [5]: 3.87 ng/mL

IL1β: recombinant human cytokine IL1β
S/B ratio [6]: 14.5 fold | EC50, stimulation of ERK/β-arrestin interaction signals by cytokines [6]: 2.8 ng/mL

TNFα
S/B ratio [6]: 8.99 fold | EC50, stimulation of ERK/β-arrestin interaction signals by cytokines [6]: 5.65 ng/mL
